Molecular target: T1, UGT-mediated glucuronidation of molidustat (M1 formation) (Homo sapiens, UniProt P22309)
T1 sequence (P22309 26-533): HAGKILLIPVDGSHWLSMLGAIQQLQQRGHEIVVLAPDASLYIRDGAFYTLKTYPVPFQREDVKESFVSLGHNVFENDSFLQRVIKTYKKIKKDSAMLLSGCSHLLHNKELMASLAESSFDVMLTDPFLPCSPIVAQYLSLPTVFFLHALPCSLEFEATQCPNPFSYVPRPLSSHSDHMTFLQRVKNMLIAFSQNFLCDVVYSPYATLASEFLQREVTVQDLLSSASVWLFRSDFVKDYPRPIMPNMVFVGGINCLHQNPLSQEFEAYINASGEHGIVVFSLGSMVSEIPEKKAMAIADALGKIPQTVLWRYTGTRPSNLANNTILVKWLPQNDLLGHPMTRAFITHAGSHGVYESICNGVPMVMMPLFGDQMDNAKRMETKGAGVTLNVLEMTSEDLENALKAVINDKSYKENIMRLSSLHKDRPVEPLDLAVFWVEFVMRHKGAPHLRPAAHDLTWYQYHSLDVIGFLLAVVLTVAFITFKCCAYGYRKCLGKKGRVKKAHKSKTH
Test: Inhibition of M1 formation from molidustat in pooled human liver microsomes
Format: in vitro ADME
Conditions: human, pooled human liver microsomes, probe molidustat 5 µmol/L (formation of M1), IC50, pooled HLMs 0.3 mg/mL, N=1, Table 1

| SMILES | IC50 at 30 min |
| --- | --- |
| Oc1cc(O)c2c(c1)O[C@H](c1cc(O)c(O)c(O)c1)[C@H](O)C2 [(‐)‐Epigallocatechin] | 5.1 µM |
| C[C@]12CC[C@@H](O)C[C@@H]1CC[C@@H]1[C@@H]2CC[C@]2(C)C(=O)CC[C@@H]12 [Androsterone] | 44 µM |
| COc1ccc(CCN2CCC(Nc3nc4ccccc4n3Cc3ccc(F)cc3)CC2)cc1 [Astemizole] | 23.5 µM |
| CC(C)=CCC/C(C)=C/COc1c2ccoc2cc2oc(=O)ccc12 [Bergamottin] | 14.8 µM |
| C=CC1=C(C)/C(=C/c2[nH]c(Cc3[nH]c(/C=C4\NC(=O)C(C)=C4C=C)c(C)c3CCC(=O)O)c(CCC(=O)O)c2C)NC1=O [Bilirubin] | 1.5 µM |
| COc1ccccc1OCCNCC(O)COc1cccc2[nH]c3ccccc3c12 (stereo not drawn) [Carvedilol] | 2.9 µM |
| Cc1ccc(-c2cc(C(F)(F)F)nn2-c2ccc(S(N)(=O)=O)cc2)cc1 [Celecoxib] | 10.6 µM |
| COc1cc(N)c(Cl)cc1C(=O)NC1CCN(CCCOc2ccc(F)cc2)CC1OC (stereo not drawn) [Cisapride] | 4.1 µM |
| Clc1ccccc1C(c1ccccc1)(c1ccccc1)n1ccnc1 [Clotrimazole] | 10.2 µM |
| COc1cc(/C=C/C(=O)CC(=O)/C=C/c2ccc(O)c(OC)c2)ccc1O [Curcumin] | 2.2 µM |
| O=c1c(-c2ccc(O)cc2)coc2cc(O)ccc12 [Daidzein] | 6.8 µM |
| Cc1nc(Nc2ncc(C(=O)Nc3c(C)cccc3Cl)s2)cc(N2CCN(CCO)CC2)n1 [Dasatinib] | 1.4 µM |
| O=C(O)Cc1ccccc1Nc1c(Cl)cccc1Cl [Diclofenac] | 38.2 µM |
| O=C(O)c1cc(-c2ccc(F)cc2F)ccc1O [Diflunisal] | 75.6 µM |
| COc1cccc2c1C(=O)c1c(O)c3c(c(O)c1C2=O)C[C@@](O)(C(=O)CO)C[C@@H]3O[C@H]1C[C@H](N)[C@H](O)[C@H](C)O1 [Doxorubicin] | 40.4 µM |
| O=C1Nc2ccc(Cl)cc2[C@@](C#CC2CC2)(C(F)(F)F)O1 [Efavirenz] | 8 µM |
| CO[C@H]1C[C@@H]2CC[C@@H](C)[C@@](O)(O2)C(=O)C(=O)N2CCCC[C@H]2C(=O)O[C@H]([C@H](C)C[C@@H]2CC[C@@H](OCCO)[C@H](OC)C2)CC(=O)[C@H](C)/C=C(\C)[C@@H](O)[C@@H](OC)C(=O)[C@H](C)C[C@H](C)/C=C/C=C/C=C/1C [Everolimus] | 4.5 µM |
| Cc1nc(-c2ccc(OCC(C)C)c(C#N)c2)sc1C(=O)O [Febuxostat] | 7.2 µM |
| COc1cc2ncnc(Nc3ccc(F)c(Cl)c3)c2cc1OCCCN1CCOCC1 [Gefitinib] | 1.8 µM |
| O=c1c(-c2ccc(O)cc2)coc2cc(O)cc(O)c12 [Genistein] | 2.3 µM |
| COc1ccc(Cl)cc1C(=O)NCCc1ccc(S(=O)(=O)NC(=O)NC2CCCCC2)cc1 [Glibenclamide] | 6.3 µM |
| CC(C)(C)NC(=O)[C@@H]1CN(Cc2cccnc2)CCN1C[C@@H](O)C[C@@H](Cc1ccccc1)C(=O)N[C@H]1c2ccccc2C[C@H]1O [Indinavir] | 3 µM |
| CCC(C)n1ncn(-c2ccc(N3CCN(c4ccc(OCC5COC(Cn6cncn6)(c6ccc(Cl)cc6Cl)O5)cc4)CC3)cc2)c1=O (stereo not drawn) [Itraconazole] | 1.2 µM |
| CC(=O)N1CCN(c2ccc(OCC3COC(Cn4ccnc4)(c4ccc(Cl)cc4Cl)O3)cc2)CC1 (stereo not drawn) [Ketoconazole] | 6.1 µM |
| Cc1c(OCC(F)(F)F)ccnc1C[S+]([O-])c1nc2ccccc2[nH]1 (stereo not drawn) [Lansoprazole] | 36.8 µM |
| CS(=O)(=O)CCNCc1ccc(-c2ccc3ncnc(Nc4ccc(OCc5cccc(F)c5)c(Cl)c4)c3c2)o1 [Lapatinib] | 2.5 µM |

| SMILES | IC50 at 30 min |
| --- | --- |
| Cc1cccc(C)c1OCC(=O)N[C@@H](Cc1ccccc1)[C@@H](O)C[C@H](Cc1ccccc1)NC(=O)[C@H](C(C)C)N1CCCNC1=O [Lopinavir] | 1.3 µM |
| CC[C@H](C)C(=O)O[C@H]1C[C@@H](C)C=C2C=C[C@H](C)[C@H](CC[C@@H]3C[C@@H](O)CC(=O)O3)[C@H]21 [Lovastatin] | 10.5 µM |
| CC[C@H](C)C(=O)O[C@H]1CCC=C2C=C[C@H](C)[C@H](CC[C@@H]3C[C@@H](O)CC(=O)O3)[C@H]21 [Mevastatin] | 13.2 µM |
| COCC(=O)O[C@]1(CCN(C)CCCc2nc3ccccc3[nH]2)CCc2cc(F)ccc2[C@@H]1C(C)C [Mibefradil] | 20.2 µM |
| Clc1ccc(COC(Cn2ccnc2)c2ccc(Cl)cc2Cl)c(Cl)c1 (stereo not drawn) [Miconazole] | 19.3 µM |
| Cc1ncc2n1-c1ccc(Cl)cc1C(c1ccccc1F)=NC2 [Midazolam] | 11.1 µM |
| CC#C[C@]1(O)CC[C@H]2[C@@H]3CCC4=CC(=O)CCC4=C3[C@@H](c3ccc(N(C)C)cc3)C[C@@]21C [Mifepristone] | 1.4 µM |
| CC(C)(O)c1ccccc1CC[C@@H](SCC1(CC(=O)O)CC1)c1cccc(/C=C/c2ccc3ccc(Cl)cc3n2)c1 [Montelukast] | 0.49 µM |
| O=C1C[C@@H](c2ccc(O)cc2)Oc2cc(O)cc(O)c21 [Naringenin] | 11.6 µM |
| CCc1nn(CCCN2CCN(c3cccc(Cl)c3)CC2)c(=O)n1CCOc1ccccc1 [Nefazodone] | 11.4 µM |
| Cc1c(O)cccc1C(=O)N[C@@H](CSc1ccccc1)[C@H](O)CN1C[C@H]2CCCC[C@H]2C[C@H]1C(=O)NC(C)(C)C [Nelfinavir] | 1.5 µM |
| O=C(O)c1cccnc1Nc1cccc(C(F)(F)F)c1 [Niflumic acid] | 14.6 µM |
| COc1ccc2[nH]c([S+]([O-])Cc3ncc(C)c(OC)c3C)nc2c1 (stereo not drawn) [Omeprazole] | 17.1 µM |
| CC(=O)O[C@H]1C(=O)[C@@]2(C)[C@H]([C@H](OC(=O)c3ccccc3)[C@]3(O)C[C@H](OC(=O)[C@H](O)[C@@H](NC(=O)c4ccccc4)c4ccccc4)C(C)=C1C3(C)C)[C@]1(OC(C)=O)CO[C@@H]1C[C@@H]2O [Paclitaxel] | 10.8 µM |
| COc1ccnc(C[S+]([O-])c2nc3ccc(OC(F)F)cc3[nH]2)c1OC (stereo not drawn) [Pantoprazole] | 19.7 µM |
| O=C(O)C[C@H](O)C[C@H](O)/C=C/c1c(C2CC2)nc2ccccc2c1-c1ccc(F)cc1 [Pitavastatin] | 14.8 µM |
| O=c1c(O)c(-c2ccc(O)c(O)c2)oc2cc(O)cc(O)c12 [Quercetin] | 5.5 µM |
| CN(CCOc1ccc(CC2SC(=O)NC2=O)cc1)c1ccccn1 (stereo not drawn) [Rosiglitazone] | 10.7 µM |
| CCCc1nn(C)c2c(=O)[nH]c(-c3cc(S(=O)(=O)N4CCN(C)CC4)ccc3OCC)nc12 [Sildenafil] | 46.2 µM |
| CNC(=O)c1cc(Oc2ccc(NC(=O)Nc3ccc(Cl)c(C(F)(F)F)c3)cc2)ccn1 [Sorafenib] | 0.32 µM |
| O=C1C(CC[S+]([O-])c2ccccc2)C(=O)N(c2ccccc2)N1c1ccccc1 (stereo not drawn) [Sulfinpyrazone] | 31.4 µM |
| CC1=C(CC(=O)O)c2cc(F)ccc2/C1=C\c1ccc([S+](C)[O-])cc1 (stereo not drawn) [Sulindac] | 37.5 µM |
| CCN(CC)CCNC(=O)c1c(C)[nH]c(/C=C2\C(=O)Nc3ccc(F)cc32)c1C [Sunitinib] | 18.7 µM |
| C=CC[C@@H]1/C=C(\C)C[C@H](C)C[C@H](OC)[C@H]2O[C@@](O)(C(=O)C(=O)N3CCCC[C@H]3C(=O)O[C@H](/C(C)=C/[C@@H]3CC[C@@H](O)[C@H](OC)C3)[C@H](C)[C@@H](O)CC1=O)[C@H](C)C[C@@H]2OC [Tacrolimus] | 0.7 µM |
| CCCc1nc2c(C)cc(-c3nc4ccccc4n3C)cc2n1Cc1ccc(-c2ccccc2C(=O)O)cc1 [Telmisartan] | 2.8 µM |
